This is an account of results in US7951962B2, “Organic semiconductor compound, organic semiconductor thin film, organic semiconductor coating liquid, organic thin film transistor, methods for producing bis(benzo[4,5] thieno)[2,3-B:3′2′-E][1,4]dithin and bis(benzo [4,5]thieno)[2,3-B:2′3′-E][1,4]dithiin” (Seiko Epson Corporation, priority 2006, dated 2011).

One series is described as follows: Solvent solubility. The class given is physicochemical. From the text:
The solvent for dissolving the organic semiconductor compound material according to the embodiment may be a hydrocarbon, an alcohol, an ether, an ester, a halogen, a ketone, […], the BTX, a non-proton polar solvent or a mixture solvent thereof. The hydrocarbon may be hexane, heptane, octane or cyclohexane, for example. The alcohol may be methanol, ethanol, (iso-)propanol or butanol. The ether may be diethyl ether, tetrahydrofuran or dioxane and the ester may be ethyl acetate or butyl acetate. The halogen may be dichloromethane or chloroform and the ketone may be acetone or methyl ethyl ketone. The nitrile may be acetonitrile or methyl nitrile. The BTX is a mixture of benzene, toluene and xylene. The non-proton polar solvent may be dimethylsulfoxide (DMSO), dimethylformamide (DMF) or hexamethylphosphoramide (HMPA).
Based on logarithmic plotting in the graph, an ON/OFF ratio of the device was approximately […].

Structures are written as SMILES.

Usually melting point stands for the temperature of the solid-liquid transition. `c1ccc2c3c(sc2c1)Sc1c(sc2ccccc12)S3` [bis(benzo[4,5]thieno)[2,3-b: 2′3′-e][1,4]dithiin] returned a melting point of 207 to 208.3 °C.

With `c1ccc2c3c(sc2c1)Sc1sc2ccccc2c1S3` [bis(benzo[4,5]thieno)[2,3-b: 3′2′-e][1,4]dithiin], in the series “Solvent solubility” (the above-described solvent (hydrocarbon, alcohol, ether, ester, halogen, ketone, nitrile, BTX, non-proton polar solvent)), the solubility in solvent entry is “soluble in the above-described solvent”. For the same molecule, the “solubility compared with known compounds” value in the series “Solvent solubility” (versus well-known low-molecular organic semiconductor compounds) is recorded as “higher solubility than well-known low-molecular organic semiconductor compounds”.
